Structures are written as SMILES.

The nature of the first series: Log P by HPLC on reversed phase columns (EEC directive 79/831 Annex V.A8). Format: physicochemical. To be noted: LogP method [a]; compounds of formula (I), Table 1.1. Summed up: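 Values come from retention times calibrated against alkan-2-ones (3–16 carbons) by linear interpolation, using reversed-phase LC-UV per EEC directive 79/831 Annex V.A8. Acetonitrile gradient 10–95% with 0.1% formic acid [a], 0.001 M ammonium acetate [b] or 0.1% phosphoric acid [c]; several values within one method separated by "+".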
On to `CCOC(=O)C1(NC(=O)c2cc(Br)c(Cl)s2)CCC1` [1.0439], for which the LogP is 3.44^[a]. The same measure, in the same setting: for `COC(=O)C(NC(=O)c1sc(Br)c(C(F)F)c1Br)C1CC1` (stereo not shown) [1.0503] the value was 3.37^[a]. Same read-out and setting: for `CCOC(=O)C(NC(=O)c1sc(Br)c(C(F)F)c1Br)C(C)C` (stereo not shown) [1.0502] the value was 4.21^[a]; for `COC(=O)C1(NC(=O)c2sc(Br)c(Cl)c2F)CC1` [1.0424], 2.72^[a]; for `CCOC(=O)CNC(=O)c1sc(Cl)c(Cl)c1C(F)F` [1.0416], 2.97^[a].

Regarding `O=C(O)CNC(=O)c1sc(Br)c(Br)c1Cl` [1.0494], the LogP is 2.28^[a]. On the same count and under the same terms, for `CCOC(=O)C(NC(=O)c1sc(Br)c(Cl)c1F)C(C)C` (stereo not shown) [1.0429] the value was 4.38^[a]; for `CCOC(=O)CNC(=O)c1cc(C)c(Cl)s1` [1.0464], 2.33^[a].

The series is the same for the next values; noted with them: method [a].
As to `COC(=O)[C@@H](CC(N)=O)NC(=O)c1sc(Br)c(Br)c1F` [1.0161], the LogP was 1.98^[a]. On the same count and under the same terms, then `C=CCOC(=O)CNC(=O)c1sc(Br)c(Br)c1F` [1.0857], with 3.13^[a]; and `CCOC(=O)C1(NC(=O)c2sc(Cl)c(Br)c2Br)CC1` [1.0210], with 3.48^[a]. `NC(=S)C1(NC(=O)c2sc(Cl)c(Cl)c2Br)CC1` [1.0881]: the LogP was 2.77^[a]. Still for that read-out and setting: for `N#CCNC(=O)c1sc(Br)c(Cl)c1Cl` [1.0193] the value was 2.67^[a]; for `CCOC(=O)CC[C@H](NC(=O)c1sc(Br)c(Br)c1F)C(=O)OCC` [1.0559], 3.84^[a]; for `O=C(NC1(C(=O)OC2CCCCC2)CCC1)c1sc(Cl)c(Cl)c1Br` [1.0880], 5.89^[a]. The same measure, in the same setting: for `CCOC(=O)[C@H](Cc1ccccc1)NC(=O)c1sc(Br)c(Br)c1F` [1.0154] the value was 4.55^[a]; for `CCOC(=O)[C@H](CO)NC(=O)c1sc(C#N)c(Cl)c1Cl` [1.0831], 2.26^[a]. Same read-out and setting: then `Cc1c(C(=O)NCC(N)=O)sc(C#N)c1Br` [1.0915], with 1.38^[a]; and `CCOC(=O)CNC(=S)c1sc(C#N)c(Br)c1C` [1.0877], with 3.30^[a]; and `O=C(NC(C(=O)OCc1ccccc1)C1CC1)c1sc(Br)c(Br)c1Cl` (stereo not shown) [1.0615], with 5.07^[a]. For `CCOC(=O)C(CCSC)NC(=O)c1sc(C#N)c(Cl)c1Cl` (stereo not shown) [1.0813], the LogP is 3.60^[a].

For the compound `COC(=O)[C@@H](CCSC)NC(=O)c1sc(Br)c(Br)c1F` [1.0158], the LogP was 3.62^[a]. Same read-out and setting: for `COC(=O)C(C)(C)NC(=O)c1sc(Br)c(C(F)F)c1Br` [1.0627] the value was 3.22^[a]; for `COC(=O)C(NC(=O)c1sc(Cl)c(Br)c1F)C1CC1` (stereo not shown) [1.0650], 3.41^[a]; for `CC(C)(C)OC(=O)C(NC(=O)c1sc(Cl)c(Cl)c1Br)C1CC1` (stereo not shown) [1.0902], 5.41^[a]. `CCOC(=O)[C@H](NC(=O)c1sc(Br)c(Br)c1F)C(C)C` [1.0152]: the LogP is 4.47^[a]. Still for that read-out and setting: then `CCOC(=O)C(Cc1ccc(O)cc1)NC(=O)c1sc(Br)c(Br)c1F` (stereo not shown) [1.0136], with 3.31^[a]; and `CCOC(=O)C(CCSC)NC(=O)c1sc(Br)c(Br)c1C#N` (stereo not shown) [1.0794], with 3.51^[a].

Regarding `N#CCNC(=O)c1sc(Br)c(C#N)c1Cl` [1.0652], the LogP was 2.03^[a]. The same measure, in the same setting: then `NC(=S)CNC(=O)c1sc(Br)c(Br)c1F` [1.0896], with 2.25^[a]; and `NC(=O)CC(NC(=O)c1sc(Br)c(Br)c1F)C(=O)O` (stereo not shown) [1.0256], with 1.66^[a]. Same read-out and setting: then `C#CCOC(=O)CNC(=O)c1sc(Cl)c(Cl)c1C#N` [1.0910], with 2.58^[a]. Take `CCOC(=O)C1(NC(=O)c2sc(C#N)c(Cl)c2Cl)CC1` [1.0572]: the LogP is 2.76^[a].

The same series, now with this note: method [a]: LC-UV, acidic range, 0.1% formic acid in water and acetonitrile.
In the case of `O=C(N[C@H]1CCSC1=O)c1sc(Cl)c(Br)c1Cl` [I.0525], the LogP is 3.28^[a]. On the same count and under the same terms, for `O=C(NC1CCSC1=O)c1sc(Br)c(Br)c1F` (stereo not shown) [I.0006] the value was 2.84^[a]; for `O=C(N[C@H]1CCSC1=O)c1sc(Br)c(Br)c1Cl` [I.0867], 3.24^[a]; for `O=C(NC1CCSC1=O)c1sc(Cl)c(Cl)c1Br` (stereo not shown) [I.1006], 3.25^[a]. Take `COC(=O)C(Cc1ccccc1)NC(=O)C(CC(=O)O)NC(=O)c1sc(Br)c(Cl)c1C` (stereo not shown) [I.0339]: the LogP was 3.09^[a].

As to `O=C(O)c1cc(Br)c(C(F)(F)F)s1` [II.081], the LogP was 2.46^[a]. Same read-out and setting: then `COC(=O)c1sc(Br)c(Br)c1C#N` [II.069], with 3.26^[a]; and `N#Cc1c(Br)sc(C(=O)O)c1Cl` [II.001], with 1.66^[a].

The same series, now with this note: method [a]; compounds of formula (I), Table 1.1.
With `CCOC(=O)C(CC(C)C)NC(=O)c1sc(Br)c(Br)c1F` (stereo not shown) [1.0062], the LogP was 4.67^[a]. As for `N#CC(NC(=O)c1sc(Br)c(Br)c1F)c1ccccc1` (stereo not shown) [1.0117], the LogP is 3.65^[a]. Still for that read-out and setting: then `CCOC(=O)C(Cc1ccccc1)NC(=O)c1cc(Br)c(C#N)s1` (stereo not shown) [1.0055], with 3.50^[a]; and `CCOC(=O)C1(NC(=O)c2sc(C#N)c(Br)c2C)CC1` [1.0026], with 2.58^[a]; and `Cc1c(C(=O)NC(C#N)Cc2ccccc2)sc(Br)c1Cl` (stereo not shown) [1.0114], with 3.92^[a].

In the case of `CCOC(=O)C(NC(=O)c1cc(F)c(Br)s1)C(C)C` (racemic) [1.0003], the LogP is 3.46^[a]. As for `CCOC(=O)C1(CNC(=O)c2sc(Cl)c(Br)c2C)CC1` [1.0033], the LogP was 3.79^[a]. Still for that read-out and setting: for `COC(=O)C(CC(F)F)NC(=O)c1sc(Br)c(Br)c1I` (stereo not shown) [1.0083] the value was 3.60^[a].

Still in this series, the particulars now being: method marked [a].
Take `CCOC(=O)C(CO)NC(=O)c1sc(Br)c(Br)c1Cl` (stereo not shown) [1.0779]: the LogP was 2.89^[a]. Turning to `COC(=O)CNC(=O)c1sc(Cl)c(C#N)c1Cl` [1.0392], the LogP was 2.16^[a]. Still for that read-out and setting: for `CCOC(=O)C(NC(=O)c1sc(Br)c(Br)c1F)C(=O)OCC` [1.0772] the value was 3.91^[a]; for `CCOC(=O)CNC(=O)c1sc(Br)c(C#N)c1Cl` [1.0689], 2.57^[a]; for `COC(=O)C(NC(=O)c1sc(Br)c(Br)c1C(F)F)C1CC1` (stereo not shown) [1.0358], 3.37^[a]. Still for that read-out and setting: for `COC(=O)C1(NC(=S)c2sc(Cl)c(Cl)c2Br)CC1` [1.0334] the value was 4.06^[a].

Regarding `CCOC(=O)C(NC(=O)c1cc(Br)c(F)s1)C(C)C` (stereo not shown) [1.0313], the LogP was 3.54^[a].

For `CCOC(=O)CN(OC)C(=O)c1sc(Cl)c(Cl)c1Br` [1.0790], the LogP was 3.71^[a].

Turning to `Cc1c(C(=O)NCC(=O)OC2CCOC2)sc(C#N)c1Br` (stereo not shown) [1.0679], the LogP was 2.12^[a]. Same read-out and setting: then `COC(=O)C(NC(=O)c1cc(Br)c(C(F)(F)F)s1)C1CC1` (stereo not shown) [1.0720], with 3.41^[a]. Still for that read-out and setting: then `COC(=O)C1(NC(=S)c2sc(C#N)c(Cl)c2C)CC1` [1.0290], with 3.04^[a]. Still for that read-out and setting: for `CCOC(=O)CNC(=O)c1cc(C#N)c(Br)s1` [1.0400] the value was 2.11^[a]; for `CCOC(=O)C1(NC(=O)c2sc(Br)c(Br)c2C(F)F)CC1` [1.0341], 3.20^[a]. With `CCOC(=O)C(CSC)NC(=O)c1sc(Cl)c(Br)c1C` (stereo not shown) [1.0753], the LogP is 3.97^[a]. `CCOC(=O)C1(NC(=O)c2cc(Cl)c(C#N)s2)CC1` [1.0387]: the LogP was 2.32^[a].

For `COC(=O)C1(NC(=O)c2sc(C#N)c(Cl)c2C)CC1` [1.0283], the LogP was 2.21^[a]. On to `COC(=O)C1(NC(=O)c2sc(Cl)c(Cl)c2C#N)CC1` [1.0682], for which the LogP is 2.33^[a].

As to `COC(=O)C1(NC(=O)c2sc(C#N)c(Cl)c2Br)CCC1` [1.0672], the LogP was 2.96^[a]. Still for that read-out and setting: then `CCOC(=O)C(C)(C)NC(=O)c1sc(Cl)c(Br)c1C` [1.0760], with 3.66^[a]; and `CCOC(=O)C1(NC(=O)c2sc(Br)c(C#N)c2Cl)CC1` [1.0691], with 2.71^[a]. Still for that read-out and setting: for `CCOC(=O)C(NC(=O)c1sc(F)c(Br)c1C)C(C)C` (stereo not shown) [1.0319] the value was 3.94^[a]; for `CCOC(=O)[C@H](CCSC)NC(=O)c1sc(Br)c(Cl)c1C` [1.0765], 4.01^[a]; for `COC(=O)[C@H](CCSC)NC(=O)c1sc(C#N)c(Br)c1C` [1.0729], 3.03^[a]. `CCOC(=O)C(NC(=O)c1sc(Cl)c(Cl)c1C#N)C(C)C` (stereo not shown) [1.0280]: the LogP is 3.77^[a]. Same read-out and setting: for `O=C(NC1(C(=O)O)CC1)c1cc(Br)c(C(F)(F)F)s1` [1.0700] the value was 2.44^[a].

The series is the same for the next values; noted with them: method marker [a] given with each value; Table 1.1, compounds of formula (I).
In the case of `Cc1c(C(=O)NCC(=O)OCCC#N)sc(C#N)c1Br` [1.0996], the LogP is 2.09^[a].

On to `O=C(O)CNC(=S)c1sc(Cl)c(Cl)c1I` [1.1030], for which the LogP was 3.13^[a]. Consider `COC(=O)C(CCSC(C)=O)NC(=O)c1sc(Cl)c(Cl)c1Br` (stereo not shown) [1.1028], for which the LogP is 3.98^[a]. The same measure, in the same setting: for `C=CCOC(=O)CNC(=O)c1sc(C#N)c(Br)c1C` [1.0994] the value was 2.65^[a]; for `CCCCOC(=O)CNC(=O)c1sc(Br)c(Br)c1Cl` [1.0987], 4.22^[a]. The same measure, in the same setting: for `COC(=O)C(C)(C)NC(=O)c1sc(Br)c(Br)c1Cl` [1.1020] the value was 3.75^[a]; for `COC(=O)C1(NC(=O)c2sc(Cl)c(C)c2Cl)CC1` [1.0978], 2.86^[a]. Turning to `COC(=O)C1(NC(=O)c2sc(Br)c(Br)c2F)CCC1` [1.0979], the LogP is 3.32^[a]. On the same count and under the same terms, for `Cc1c(C(=O)NCC(=O)OCC2CC2)sc(C#N)c1Br` [1.0982] the value was 2.86^[a].

Still in this series, the particulars now being: reversed phase HPLC columns, method [a]: LC-UV, acidic range, 0.1% formic acid in water and acetonitrile.
Consider `COC(=O)c1sc(Br)c(Br)c1C(F)F` [II.055, methyl 4,5-dibromo-3-(difluoromethyl)thiophene-2-carboxylate], for which the chromatographic logP came out at 3.81.

The same series, now with this note: reversed phase HPLC columns, value in preparation example, method not marked.
Consider `COC(=O)c1sc(Br)c(Br)c1C(F)F` [II.055, methyl 4,5-dibromo-3-(difluoromethyl)thiophene-2-carboxylate], for which the chromatographic logP worked out at 3.81.

The term chromatographic logP denotes a lipophilicity value derived from retention on a column. A low value points to a more hydrophilic compound.

(Values after US12642270B2, “Substituted thiophene carboxamides, thiophene carboxylic acids and derivatives thereof” (Bayer Aktiengesellschaft, priority 2019, dated 2026).)
